# Tested on: Nakaseomyces glabratus
# Assay: Antifungal activity against fluconazole-resistant Candida glabrata
# Type: functional
# Details: read-out: ED50 (the source's name)
row,Structure (SMILES),EC50 [µM]
1,CC1[C@@H](CO)O[C@@H](O[C@H](CCCCCCCC(=O)CCCCCCCCCCCCCC[C@@H](O)[C@@H](C)N)[C@@H](N)CO)[C@H](O)[C@H]1O (some centres undefined) [OCEANAPISIDE],40
2,C[C@@H](N)[C@H](O)CCCCCCCC(=O)CCCCCCCCCCCCCC[C@@H](O[C@@H]1O[C@H](CO)[C@H](O)[C@H](O)[C@H]1O)[C@H](N)CO [RHIZOCHALIN C],> 150
3,C[C@@H](N)[C@H](O)CCCCCCCCC(=O)CCCCCCCCCCCCCC[C@@H](O[C@@H]1O[C@H](CO)[C@H](O)[C@H](O)[C@H]1O)[C@@H](C)N [RHIZOCHALIN D],> 150
4,C[C@@H](N)[C@H](O)CCCCCCCC(=O)CCCCCCCCCCCCCC[C@@H](O[C@@H]1O[C@H](CO)[C@H](O)[C@H](O)[C@H]1O)[C@@H](C)N [RHIZOCHALIN],40

# From ChEMBL document CHEMBL1141445, “Rhizochalins C and D from the sponge Rhizochalina incrustata. A rare threo-sphingolipid and a facile method for determination of the carbonyl position in alpha,omega-bifunctionalized ketosphingolipids” (2007)
